Legend:
[1] = target: FLT3 cytoplasmic domain (GST fused protein) (Homo sapiens (Human), UniProt P36888); test: Biochemical assay for inhibitors of FLT3 kinase activity; settings: 2 nM pre activated enzyme, 254 microM ATP, 60 minutes at r.t.
Experimental: FLT3 cytoplasmic domain (aa 564-993end of the 993 aminoacid long full length sequence, accession number P36888 of UniProtKB/Swiss-Prot. database) was amplified by PCR starting from a testis cDNA library and then cloned into pVL vector for expression in insect cells through the baculovirus system. The GST-FLT3 cytoplasmic domain has been expressed in Sf21 cells infected for 72 hours at 27° C. The recombinant protein has been purified by affinity on GSH-sepharose and eluted with glutathione. A further purification step has been performed on heparine sepharose. […] General Principle-A specific peptidic substrate was trans-phosphorylated by the kinase in the presence of ATP traced with 33Pγ-ATP. At the end of the phosphorylation reaction, the not reacted ATP, cold and radioactive, was captured by an excess of dowex ion exchange resin that eventually settled by gravity to the bottom of the reaction plate. The supernatant was subsequently withdrawn and transferred into a counting plate that was then evaluated by β-counting. • ii. Dowex resin preparation-500 g of wet resin (SIGMA, custom prepared resin DOWEX 1×8 200-400 mesh, 2.5 Kg) were weighed out and diluted to 2 L in 150 mM sodium formate, pH 3.00. The resin was allowed to settle down overnight and then the supernatant was discarded. After three washes as above over a couple of days, the resin was allowed to settle and two volumes (with respect to the resin volume) were added of 150 mM sodium formate buffer. Biochemical Assay for Inhibitors of FLT3 Kinase Activity • i. Enzyme-The assay was performed using FLT3 cytoplasmic domain product and purified in house as GST fused protein. […] NO: 1). The peptide was purchased from American Peptide Company (Sunnyvale, Calif.). Biochemical Assay for Inhibitors of KIT Kinase Activity • i. Enzyme-The assay has been performed using KIT cytoplasmic domain product and purified in house as GST fused protein. […] NO: 2). The peptide was purchased from American Peptide Company (Sunnyvale, Calif.). Compound Testing • i. […] An automated station for serial dilutions (Biomek FX, Beckman) was used for producing 1:3 dilutions in 100% DMSO, from line A1 to A10, and for all the compounds in the column. […] The following dispensation into the plates plus 3 cycles of mixing, done by the robot itself, started the kinase reaction. At this point, the correct concentrations were restored for all the reagents. The robot incubated the plates for 60 minutes at r.t., and then stopped the reaction by pipetting 60 microL of dowex resin suspension into the reaction mix. In order to avoid tip clogging, wide bore tips were used to dispense the resin suspension. Three cycles of mixing were done immediately after the addition of the resin. Another mixing cycle was performed after all the plates were stopped, this time using normal tips: the plates were then allowed to rest for about one hour in order to allow resin sedimentation. […] Data Fitting-Data were analyzed by an internally customized version of the SW package “Assay Explorer” that provided sigmoidal fitting of the ten-dilutions curves for IC50 determination in the secondary assays/hit confirmation routines. Cell-Based Assays for Inhibitors of FLT3 Kinase Activity In vitro Cell Proliferation Assay for Inhibitors of FLT3 Kinase Activity

[2] = target: KIT cytoplasmic domain (GST fused protein) (Homo sapiens (Human), UniProt P10721); test: Biochemical assay for inhibitors of KIT kinase activity; settings: 4 nM pre activated enzyme, 4.4 microM ATP, 60 minutes at r.t.
Experimental: KIT cytoplasmic domain (aa 544-976end of the 976 aminoacid long full length sequence, accession number P10721 of UniProtKB/Swiss-Prot database) was cloned into pVL vector for expression in insect cells through the baculovirus system. The GST-KIT cytoplasmic domain has been expressed in Sf21 cells infected for 66 hrs at 27° C. The recombinant protein has been purified by affinity on GSH-sepharose and eluted with glutathione. […] General Principle-A specific peptidic substrate was trans-phosphorylated by the kinase in the presence of ATP traced with 33Pγ-ATP. At the end of the phosphorylation reaction, the not reacted ATP, cold and radioactive, was captured by an excess of dowex ion exchange resin that eventually settled by gravity to the bottom of the reaction plate. The supernatant was subsequently withdrawn and transferred into a counting plate that was then evaluated by β-counting. • ii. Dowex resin preparation-500 g of wet resin (SIGMA, custom prepared resin DOWEX 1×8 200-400 mesh, 2.5 Kg) were weighed out and diluted to 2 L in 150 mM sodium formate, pH 3.00. The resin was allowed to settle down overnight and then the supernatant was discarded. After three washes as above over a couple of days, the resin was allowed to settle and two volumes (with respect to the resin volume) were added of 150 mM sodium formate buffer. Biochemical Assay for Inhibitors of FLT3 Kinase Activity • i. Enzyme-The assay was performed using FLT3 cytoplasmic domain product and purified in house as GST fused protein. […] The peptide was purchased from American Peptide Company (Sunnyvale, Calif.). Biochemical Assay for Inhibitors of KIT Kinase Activity • i. Enzyme-The assay has been performed using KIT cytoplasmic domain product and purified in house as GST fused protein. […] NO: 2). The peptide was purchased from American Peptide Company (Sunnyvale, Calif.). Compound Testing • i. […] An automated station for serial dilutions (Biomek FX, Beckman) was used for producing 1:3 dilutions in 100% DMSO, from line A1 to A10, and for all the compounds in the column. […] The following dispensation into the plates plus 3 cycles of mixing, done by the robot itself, started the kinase reaction. At this point, the correct concentrations were restored for all the reagents. The robot incubated the plates for 60 minutes at r.t., and then stopped the reaction by pipetting 60 microL of dowex resin suspension into the reaction mix. In order to avoid tip clogging, wide bore tips were used to dispense the resin suspension. Three cycles of mixing were done immediately after the addition of the resin. Another mixing cycle was performed after all the plates were stopped, this time using normal tips: the plates were then allowed to rest for about one hour in order to allow resin sedimentation. […] Data Fitting-Data were analyzed by an internally customized version of the SW package “Assay Explorer” that provided sigmoidal fitting of the ten-dilutions curves for IC50 determination in the secondary assays/hit confirmation routines. Cell-Based Assays for Inhibitors of FLT3 Kinase Activity In vitro Cell Proliferation Assay for Inhibitors of FLT3 Kinase Activity

Chain of KIT cytoplasmic domain (GST fused protein) (P10721 544-976): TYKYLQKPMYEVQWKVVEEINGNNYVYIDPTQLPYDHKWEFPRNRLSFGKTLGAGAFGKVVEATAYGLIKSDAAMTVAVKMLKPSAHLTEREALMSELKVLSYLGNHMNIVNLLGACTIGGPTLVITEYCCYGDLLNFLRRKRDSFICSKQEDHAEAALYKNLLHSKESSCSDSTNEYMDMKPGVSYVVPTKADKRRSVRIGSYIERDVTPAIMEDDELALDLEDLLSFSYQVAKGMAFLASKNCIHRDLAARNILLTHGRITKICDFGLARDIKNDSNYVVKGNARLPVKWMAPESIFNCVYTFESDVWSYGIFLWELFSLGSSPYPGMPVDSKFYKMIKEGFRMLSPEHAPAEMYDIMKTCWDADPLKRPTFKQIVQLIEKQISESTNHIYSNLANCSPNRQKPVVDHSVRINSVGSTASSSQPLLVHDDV
Chain of FLT3 cytoplasmic domain (GST fused protein) (P36888 564-993): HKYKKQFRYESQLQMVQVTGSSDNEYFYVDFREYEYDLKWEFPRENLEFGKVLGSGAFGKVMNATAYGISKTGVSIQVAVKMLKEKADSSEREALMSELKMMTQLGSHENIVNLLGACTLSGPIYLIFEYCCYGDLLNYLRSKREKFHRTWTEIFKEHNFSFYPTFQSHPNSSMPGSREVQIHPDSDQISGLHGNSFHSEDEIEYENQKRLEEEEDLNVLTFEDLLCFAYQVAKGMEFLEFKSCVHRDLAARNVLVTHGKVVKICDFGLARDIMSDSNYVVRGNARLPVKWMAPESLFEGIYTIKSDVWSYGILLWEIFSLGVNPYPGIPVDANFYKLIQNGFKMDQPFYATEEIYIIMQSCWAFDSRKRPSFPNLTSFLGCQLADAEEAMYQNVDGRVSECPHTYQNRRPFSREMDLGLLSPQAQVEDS

| Structure (SMILES) | IC50 [1] [nM] | IC50 [2] [nM] |
| --- | --- | --- |
| CN1CCN(c2ccc(C(=O)Nc3n[nH]c4cc(OCCOCc5ccccc5)ccc34)c(F)c2)CC1 [Cpd. 38, N-[6-(2-Benzyloxy-ethoxy)-1H-indazol-3-yl]-2-fluoro-4-(4-methyl-piperazin-1-yl)-benzamide] | 539 | 613 |
| CN1CCN(c2ccc(C(=O)Nc3n[nH]c4cc(OCCOCc5ccc(C(F)(F)F)cc5)ccc34)cc2)CC1 [Cpd. 33, 4-(4-Methyl-piperazin-1-yl)-N-{6-[2-(4-trifluoromethyl-benzyloxy)-ethoxy]-1H-indazol-3-yl}-benzamide] | < 50 | < 50 |
| CN(C)c1ccc(C(=O)Nc2n[nH]c3cc(OCc4ccccc4)ccc23)cc1 [Ref. Compound, reference compound] | 3180 | > 10000 |
| CN1CCN(c2ccc(C(=O)Nc3n[nH]c4cc(OCCOCc5cccc(C(F)(F)F)c5)ccc34)cc2)CC1 [Cpd. 34, 4-(4-Methyl-piperazin-1-yl)-N-{6-[2-(3-trifluoromethyl-benzyloxy)-ethoxy]-1H-indazol-3-yl}-benzamide] | 56 | 58 |
| CN1CCN(c2ccc(C(=O)Nc3n[nH]c4cc(OCCOCc5ccc(F)cc5)ccc34)cc2)CC1 [Cpd. 32, N-{6-[2-(4-Fluoro-benzyloxy)-ethoxy]-1H-indazol-3-yl}-4-(4-methyl-piperazin-1-yl)-benzamide] | < 50 | < 50 |
| CN1CCN(c2ccc(C(=O)Nc3n[nH]c4cc(OC5CCN(Cc6ccccc6)CC5)ccc34)cc2)CC1 [Cpd. 6, N-[6-(1-Benzyl-piperidin-4-yloxy)-1H-indazol-3-yl]-4-(4-methyl-piperazin-1-yl)-benzamide] | 248 | 6890 |
| O=C(Nc1n[nH]c2cc(OCCOCc3ccccc3)ccc12)c1ccc(N2CC(N3CCCC3)C2)cc1 [Cpd. 28, N-[6-(2-Benzyloxy-ethoxy)-1H-indazol-3-yl]-4-(3-pyrrolidin-1-yl-azetidin-1-yl)-benzamide] | 136 | 306 |
| CN1CCN(c2ccc(C(=O)Nc3n[nH]c4cc(Oc5ccccc5)ccc34)cc2)CC1 [Cpd. 2, 4-(4-Methyl-piperazin-1-yl)-N-(6-phenoxy-1H-indazol-3-yl)-benzamide] | 1130 | 172 |
| CN1CCN(c2ccc(C(=O)Nc3n[nH]c4cc(OCc5ccccc5)ccc34)cc2)CC1 [Cpd. 1, N-(6-Benzyloxy-1H-indazol-3-yl)-4-(4-methyl-piperazin-1-yl)-benzamide] | 428 | 2800 |
| COc1ccc(COCCOc2ccc3c(NC(=O)c4ccc(N5CCN(C)CC5)cc4)n[nH]c3c2)cc1 [Cpd. 40, N-{6-[2-(4-Methoxy-benzyloxy)-ethoxy]-1H-indazol-3-yl}-4-(4-methyl-piperazin-1-yl)-benzamide] | < 50 | 88 |
| CN1CCN(c2ccc(C(=O)Nc3n[nH]c4cc(OCCOCc5ccccc5)ccc34)cc2)CC1 [Cpd. 11, N-[6-(2-Benzyloxy-ethoxy)-1H-indazol-3-yl]-4-(4-methyl-piperazin-1-yl)-benzamide] | < 50 | 113 |
| CN1CCN(c2ccc(C(=O)Nc3n[nH]c4cc(Oc5cccc(OCc6ccccc6)c5)ccc34)cc2)CC1 [Cpd. 9, N-[6-(3-Benzyloxy-phenoxy)-1H-indazol-3-yl]-4-(4-methyl-piperazin-1-yl)-benzamide] | 1500 | 713 |
| CN1CCN(c2ccc(C(=O)Nc3n[nH]c4cc(OC/C=C/c5ccccc5)ccc34)cc2)CC1 [Cpd. 39, 4-(4-Methyl-piperazin-1-yl)-N-[6-((E)-3-phenyl-allyloxy)-1H-indazol-3-yl]-benzamide] | 62 | 528 |
| CN1CCN(c2ccc(C(=O)Nc3n[nH]c4cc(OCCOc5ccccc5)ccc34)cc2)CC1 [Cpd. 10, 4-(4-Methyl-piperazin-1-yl)-N-[6-(2-phenoxy-ethoxy)-1H-indazol-3-yl]-benzamide] | < 50 | 956 |

Source: patent publication US9408850B2, “Substituted indazole derivatives active as kinase inhibitors” (NERVIANO MEDICAL SCIENCES S.R.L., priority 2011, dated 2016)
